In patent US9227930B2, “Aminoindane derivatives, pharmaceutical compositions containing them, and their use in therapy” (ABBOTT LABORATORIES, priority 2010, dated 2016):
Counter-ions that a name gives are not always drawn.

Target: human GlyT1c transporter (Homo sapiens (Human), UniProt P48067)
Assay: Radioligand binding assay using recombinant CHO cell membranes expressing human GlyT1
Conditions: read-out: radioligand binding Kiapp
Method: 2. Radioligand binding assays using recombinant CHO cell membranes expressing human GlyT1:
Radioligand binding to human GlyT1c transporter-expressing membranes was determined as described in Mezler et al., Molecular Pharmacology 74:1705-1715, 2008.

Sequence of human GlyT1c transporter (P48067 whole entry): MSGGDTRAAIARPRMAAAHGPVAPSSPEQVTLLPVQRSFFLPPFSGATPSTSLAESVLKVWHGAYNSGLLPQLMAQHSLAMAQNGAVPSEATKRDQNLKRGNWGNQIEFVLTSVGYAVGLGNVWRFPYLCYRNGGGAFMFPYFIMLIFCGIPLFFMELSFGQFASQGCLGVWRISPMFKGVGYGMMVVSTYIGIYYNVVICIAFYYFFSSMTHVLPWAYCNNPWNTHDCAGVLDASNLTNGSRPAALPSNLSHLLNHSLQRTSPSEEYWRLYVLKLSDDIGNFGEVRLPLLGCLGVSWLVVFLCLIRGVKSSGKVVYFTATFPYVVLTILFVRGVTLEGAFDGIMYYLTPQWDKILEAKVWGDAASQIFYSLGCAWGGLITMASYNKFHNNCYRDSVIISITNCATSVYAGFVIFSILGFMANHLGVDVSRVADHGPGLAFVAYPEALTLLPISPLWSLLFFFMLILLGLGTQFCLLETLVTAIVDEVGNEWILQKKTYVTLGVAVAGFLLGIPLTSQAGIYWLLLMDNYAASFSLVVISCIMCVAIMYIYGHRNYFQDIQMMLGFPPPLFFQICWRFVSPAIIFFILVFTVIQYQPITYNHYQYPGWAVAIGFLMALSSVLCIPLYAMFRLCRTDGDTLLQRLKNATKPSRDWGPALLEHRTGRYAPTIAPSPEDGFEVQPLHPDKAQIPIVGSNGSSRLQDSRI

With `CN[C@@H]1Cc2cc(F)c(OCCNS(=O)(=O)c3cn(C)cn3)cc2[C@@H]1Cc1ccccc1` (relative stereo) [Example 200, cis-N-(2-(3-Benzyl-6-fluoro-2-(methylamino)-2,3-dihydro-1H-inden-5-yloxy)ethyl)-1-methyl-1H-imidazole-4-sulfonamide] the Ki was ≤ 100 nM.
For `Cn1cnc(S(=O)(=O)NCCOc2cc3c(cc2F)C[C@@H](N2CCC2)[C@H]3Cc2ccccc2)c1` (relative stereo) [Example 201, cis-N-(2-{[2-(Azetidin-1-yl)-3-benzyl-6-fluoro-2,3-dihydro-1H-inden-5-yl]oxy}ethyl)-1-methyl-1H-imidazole-4-sulfonamide], the Ki was ≤ 100 nM.
With `Cn1cnc(S(=O)(=O)NCCOc2cc3c(cc2F)C[C@@H](N2CC(C)(O)C2)[C@H]3Cc2ccccc2)c1` (relative stereo) [Example 206, cis-N-(2-{[3-Benzyl-6-fluoro-2-(3-hydroxy-3-methylazetidin-1-yl)-2,3-dihydro-1H-inden-5-yl]oxy}ethyl)-1-methyl-1H-imidazole-4-sulfonamide] the Ki was ≤ 100 nM.
With `CN[C@@H]1Cc2cc(F)c(CNS(=O)(=O)c3cn(C)cn3)cc2[C@@H]1Cc1ccccc1` (relative stereo) [Example 209a, cis-N-{[3-Benzyl-6-fluoro-2-(methylamino)-2,3-dihydro-1H-inden-5-yl]methyl}-1-methyl-1H-imidazole-4-sulfonamide] the Ki was ≤ 10 nM.
For `CN[C@@H]1Cc2cc(F)c(CNS(=O)(=O)c3cn(C)cn3)cc2[C@H]1Cc1ccccc1` (relative stereo) [Example 209b, trans-N-{[3-benzyl-6-fluoro-2-(methylamino)-2,3-dihydro-1H-inden-5-yl]methyl}-1-methyl-1H-imidazole-4-sulfonamide], the Ki was ≤ 10 nM.
`CCOC(=O)NC1Cc2ccc(OCCNS(=O)(=O)c3cn(C)cn3)cc2C1Cc1ccccc1` (stereo not drawn) [Example 195, Ethyl 1-benzyl-6-(2-(1-methyl-1H-imidazole-4-sulfonamido)ethoxy)-2,3-dihydro-1H-inden-2-ylcarbamate] was tested, and the Ki was ≤ 1000 nM.
With `CCOC(=O)NC1Cc2ccc(OCCNS(=O)(=O)c3nccn3C)cc2C1Cc1ccccc1` (stereo not drawn) [Example 196, Ethyl 1-benzyl-6-(2-(1-methyl-1H-imidazole-2-sulfonamido)ethoxy)-2,3-dihydro-1H-inden-2-ylcarbamate] the Ki was ≤ 10000 nM.
`Cn1cnc(S(=O)(=O)NCCOc2ccc3c(c2)C(Cc2ccccc2)C(N)C3)c1` (stereo not drawn) [Example 197, N-{2-[(2-Amino-3-benzyl-2,3-dihydro-1H-inden-5-yl)oxy]ethyl}-1-methyl-1H-imidazole-4-sulfonamide hydrochloride] was tested, and the Ki was ≤ 100 nM.
For `Cn1ccnc1S(=O)(=O)NCCOc1ccc2c(c1)C(Cc1ccccc1)C(N)C2` (stereo not drawn) [Example 198, N-(2-(2-Amino-3-benzyl-2,3-dihydro-1H-inden-5-yloxy)ethyl)-1-methyl-1H-imidazole-2-sulfonamide hydrochloride], the Ki was ≤ 10000 nM.
For `CNC1Cc2ccc(OCCNS(=O)(=O)c3cn(C)cn3)cc2C1Cc1ccccc1` (stereo not drawn) [Example 199, N-(2-(3-Benzyl-2-(methylamino)-2,3-dihydro-1H-inden-5-yloxy)ethyl)-1-methyl-1H-imidazole-4-sulfonamide], the Ki was ≤ 10 nM.
For `Cn1cnc(S(=O)(=O)NCCOc2ccc3c(c2)C(Cc2ccccc2)C(N2CCC2)C3)c1` (stereo not drawn) [Example 202, N-(2-(2-(Azetidin-1-yl)-3-benzyl-2,3-dihydro-1H-inden-5-yloxy)ethyl)-1-methyl-1H-imidazole-4-sulfonamide], the Ki was ≤ 10 nM.
For `CC1CN(C2Cc3cc(F)c(OCCNS(=O)(=O)c4cn(C)cn4)cc3C2Cc2ccccc2)C1` (stereo not drawn) [Example 203, N-(2-(3-Benzyl-6-fluoro-2-(3-methylazetidin-1-yl)-2,3-dihydro-1H-inden-5-yloxy)ethyl)-1-methyl-1H-imidazole-4-sulfonamide], the Ki was ≤ 100 nM.
`CC1CN(C2Cc3ccc(OCCNS(=O)(=O)c4cn(C)cn4)cc3C2Cc2ccccc2)C1` (stereo not drawn) [Example 204, N-(2-(3-Benzyl-2-(3-methylazetidin-1-yl)-2,3-dihydro-1H-inden-5-yloxy)ethyl)-1-methyl-1H-imidazole-4-sulfonamide] was tested, and the Ki was ≤ 100 nM.
For `Cn1cnc(S(=O)(=O)NCCOc2ccc3c(c2)C(Cc2ccccc2)C(N2CC(C)(C)C2)C3)c1` (stereo not drawn) [Example 205, N-(2-{[3-Benzyl-2-(3,3-dimethylazetidin-1-yl)-2,3-dihydro-1H-inden-5-yl]oxy}ethyl)-1-methyl-1H-imidazole-4-sulfonamide], the Ki was ≤ 100 nM.
In the case of `CN(CCOc1cc2c(cc1F)CC(N1CC(C)(O)C1)C2Cc1ccccc1)S(=O)(=O)c1cn(C)cn1` (stereo not drawn) [Example 207, N-(2-(3-Benzyl-6-fluoro-2-(3-hydroxy-3-methylazetidin-1-yl)-2,3-dihydro-1H-inden-5-yloxy)ethyl)-N,1-dimethyl-1H-imidazole-4-sulfonamide], the Ki is reported as ≤ 1000 nM.
